Measurements: the supplement of paper PMC4858399

Tests used:
Settings in all cases: exposure time 48 h
[1] = system: Caenorhabditis elegans N2; assay: mean nematode size ln(EXT) after 48 h, plate-adjusted (DMSO control set to 6) (ln(EXT), control-adjusted); higher = larger nematodes / less growth inhibition
Summary of the method: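 C. elegans N2 larvae, synchronised at L1, grew for 48 h at 20°C in K-medium with killed OP50, 1% DMSO and 0.5–200 µM chemical. Mean size per well was derived from natural-logged Biosort extinction after a growth model removed debris. Adjustment across plates involved subtracting the vehicle control mean and adding 6.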

[2] = system: Caenorhabditis elegans N2; assay: lowest effective concentration for larval growth inhibition (size below effect threshold); higher = less potent
Summary of the method: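 In 96-well plates, 50 C. elegans N2 L1 larvae per well were cultured at 20°C for 48 h in K-medium with killed bacteria and 1% DMSO, plus the chemical at 0.5, 1, 5, 10, 50, 100 or 200 µM. Size was measured as per-worm extinction on a Biosort and log-transformed into well means. Taking the first dose where the plate-adjusted mean size sits under 5.665 and stays there at higher doses gives the lowest effective concentration.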

[3] = system: Caenorhabditis elegans N2; assay: AC50 for larval growth inhibition (Hill fit); higher = less potent
Summary of the method: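 After 48 h at 20°C in K-medium with killed OP50, 1% DMSO and 0.5–200 µM chemical, synchronised C. elegans N2 L1 larvae (50 per well, 96-well plates) were sized individually as extinction on a COPAS Biosort. These values were log-transformed and averaged per well, and wells with fewer than 10 worms were excluded. The AC50 was derived from a constrained Hill fit by weighted genetic-algorithm regression, and out-of-range values are censored.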

SMILES	mean nematode size ln(EXT) (ln) ([1]; 0.5 µM)	mean nematode size ln(EXT) (ln) ([1]; 1 µM)	mean nematode size ln(EXT) (ln) ([1]; 5 µM)	mean nematode size ln(EXT) (ln) ([1]; 10 µM)	mean nematode size ln(EXT) (ln) ([1]; 50 µM)	mean nematode size ln(EXT) (ln) ([1]; 100 µM)	mean nematode size ln(EXT) (ln) ([1]; 200 µM)	lowest effective concentration [2] [µM]	AC50 for larval growth inhibition [3] [µM]
Cn1c(=O)c2nc[nH]c2n(C)c1=O [Theophylline]	5.97	5.97	5.98	6.02	5.84	5.9	5.59	200	> 200
c1ccc2[nH]c(-c3cscn3)nc2c1 [Thiabendazole]	6.04	6.23	6.02	5.98	5.78	5.93	4.91	200	> 200
COC(=O)c1c(C(F)F)nc(C(F)(F)F)c(C2=NCCS2)c1CC(C)C [Thiazopyr]	6.05	5.89	6	5.98	4.8	4.4	3.61	50	73.2
O=C(Nc1ccccc1)Nc1cnns1 [Thidiazuron]	6.05	6.18	6.1	5.93	6.01	5.89	4.8	200	> 200
CCN(CC)C(=O)SCc1ccc(Cl)cc1 [Thiobencarb]	5.97	5.98	5.97	5.95	5.44	4.48	4.48	50	51.1
CS/C(C)=N\OC(=O)N(C)SN(C)C(=O)O/N=C(\C)SC [Thiodicarb]	5.54	5.83	5.32	5.34	4.27	3.74	3.51	5	28.4
COC(=O)NC(=S)Nc1ccccc1NC(=S)NC(=O)OC [Thiophanate-methyl]	5.88	5.84	5.76	5.87	5.83	5.73	5.41	200	> 200
CN(C)C(=S)SSC(=S)N(C)C [Thiram]	6	6.02	6.06	6.13	5.55	5.36	5.13	50	48.9
CCO/N=C(\CC)C1=C(O)CC(c2c(C)cc(C)cc2C)CC1=O (configuration not stated) [Tralkoxydim]	5.85	5.93	5.9	6.14	6.08	5.93	5.48	200	109
NC(=O)Cn1c(=O)cc(CCN2CCN(c3nccc4sccc34)CC2)c2ccc(F)cc21 [Trelanserin]	5.9	5.78	5.75	5.81	5.71	5.7	5.54	200	> 200
CCCCCCCCOC(=O)c1ccc(C(=O)OCCCCCCCC)c(C(=O)OCCCCCCCC)c1 [Tri (n-octyl) Trimellitate]	5.86	5.93	5.95	5.85	5.91	5.92	5.64	200	> 200
CC(C)N(C(=O)SCC(Cl)=C(Cl)Cl)C(C)C [Tri-allate]	5.72	5.91	5.86	5.9	5.39	4.62	3.99	50	86.7
CC(C)(C)C(=O)C(Oc1ccc(Cl)cc1)n1cncn1 (configuration not stated) [Triadimefon]	5.76	5.75	5.57	5.71	5.98	5.91	5.36	200	> 200
CC(C)(C)C(O)C(Oc1ccc(Cl)cc1)n1cncn1 (configuration not stated) [Triadimenol]	5.84	5.88	5.9	5.93	5.79	5.95	5.59	200	> 200
CCCCSP(=O)(SCCCC)SCCCC [Tribufos]	5.81	5.73	5.58	3.53	3.25	3.33	4.2	5	5.32
CCC[CH2][Sn]([Cl])([CH2]CCC)[CH2]CCC [Tributyltin chloride]	4.58	4.74	3.7	3.56	3.85	3.97	3.48	≤ 0.5	< 0.5
COP(=O)(OC)C(O)C(Cl)(Cl)Cl (configuration not stated) [Trichlorfon]	5.57	5.69	5.42	5.31	4.77	4.73	3.96	5	80.1
O=C(O)COc1nc(Cl)c(Cl)cc1Cl [Triclopyr]	6.07	6.1	6.13	6.08	5.61	5.48	4.06	50	156
